Test results from publication PMC6838683, “Discovery of Human Signaling Systems: Pairing Peptides to G Protein-Coupled Receptors” (Cell, 2019).
Numbering of substitutions follows the chain as printed. Like-named read-outs stand apart in the source and are kept apart here. Values belong to the molecule of their own block, whether it stands above or below them. Residues, ends and D or L forms follow the SMILES beside them.

Assays:
GPR1 [1] = molecular target: T1, GPR1 (Homo sapiens, UniProt P46091); assay: β-arrestin recruitment (Tango), validation; format: cell-based; design: host or cells: HTLA cells (HEK293-derived)
T1 sequence (P46091 1-355): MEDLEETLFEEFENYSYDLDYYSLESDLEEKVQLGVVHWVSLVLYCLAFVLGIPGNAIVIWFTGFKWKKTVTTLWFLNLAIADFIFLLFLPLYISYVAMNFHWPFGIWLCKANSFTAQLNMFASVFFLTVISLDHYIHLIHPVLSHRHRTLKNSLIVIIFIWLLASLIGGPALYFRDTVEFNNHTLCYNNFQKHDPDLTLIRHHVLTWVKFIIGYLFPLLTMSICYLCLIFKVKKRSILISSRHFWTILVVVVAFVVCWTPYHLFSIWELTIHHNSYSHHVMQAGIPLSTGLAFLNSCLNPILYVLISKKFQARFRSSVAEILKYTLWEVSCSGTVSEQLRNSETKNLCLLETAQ

GPR1 [2] = molecular target: T1, GPR1; assay: β-arrestin recruitment (PathHunter); format: cell-based; conditions: receptor GPR1; mean, SEM and n (2-3); read-out: b-arrestin recruitment assays (PathHunter) pEC50 (converted)
Experimental: PathHunter eXpress Assays (DiscoverX) were performed in 384-well format according to the manufacturer’s recommendations. GPR1 cells were incubated with peptides for 90 min and luminescence measured using an EnSpire 2300 Multimode plate reader (PerkinElmer).

[3] = tested on: 120 GPCR targets, including all available orphan receptors and 27 known class A peptide receptors; assay: Peptide library screen, β-arrestin recruitment (Tango, fold change, 10 μM); format: cell-based, human; conditions: for Active at: (activity in b-arrestin recruitment assays): Tango, receptor(s) at which the known library peptide was active, among its known GPCR target(s), validated pairings; for Confirmation of known target in Tango: repeat hitters of the peptide library screen, the value names the known receptor(s) confirmed in the β-arrestin recruitment (Tango) screen
Experimental: The peptide library was additionally screened against 120 GPCR targets in parallel, including all available orphan receptors and 27 known class A peptide receptors using the Tango assay platform ([Kroeze et al., 2015]). Briefly, HTLA cells (a HEK293 cell line stably expressing a tTA-dependent luciferase reporter and a β-arrestin2-TEV fusion gene) were plated 10,000 cells/well in poly-L-lysine–coated clear-bottom white 384-well plates in DMEM supplemented with 10% FBS, 100 U/ml penicillin and 100 μg/ml streptomycin, 2 μg/ml puromycin and 100 μg/ml hygromycin B. 24 hr later, cells were transfected with Tango GPCR constructs using the calcium phosphate method ([Jordan et al., 1996]). The next day, culture medium was changed to DMEM + 1% dFBS and 10 μM peptides were added for overnight stimulation. Bright-Glo solution (Promega) was incubated for 15–20 min at room temperature, and luminescence was counted using a Trilux luminescence counter (Wallac).

human GPCRs = tested on: human GPCRs; design: method as in Guide to Pharmacology database; conditions: max reported value, ref Guide to Pharmacology database, cited from earlier work; for pEC50_value: receptor XCR1 (xcr1_human, P46094)
Excerpt: Supplement mmc1.xlsx, sheet "HumanGPCRLigands" | column: pKi_value; pKd_value; pEC50_value; pIC50_value

[4] = receptor GPR1, mean, SEM and n (2-3), read-out: b-arrestin recruitment assays (Tango) pEC50 (converted)
[5] = receptor PROKR1 (pkr1_human, Q8TCW9)
[6] = receptor PROKR2 (pkr2_human, Q8NFJ6)

EC50 (GPR1 [1]; [4]): 5010 nM
EC50 (GPR1 [2]): 661 nM
Molecule: CC(C)C[C@H](NC(=O)[C@H](CCCNC(=N)N)NC(=O)[C@H](CC(=O)O)NC(=O)[C@H](CC(C)C)NC(=O)[C@@H]1CCCN1C(=O)[C@H](CO)NC(=O)CNC(=O)[C@H](Cc1ccccc1)NC(=O)CNC(=O)[C@H](CO)NC(=O)[C@H](Cc1ccccc1)NC(=O)[C@H](CO)NC(=O)[C@H](CCCNC(=N)N)NC(=O)[C@@H](N)CCCCN)C(=O)N[C@@H](CO)C(=O)N[C@@H](C)C(=O)NCC(=O)N[C@@H](CO)C(=O)N[C@H](C(=O)N[C@@H](CC(=O)O)C(=O)N[C@@H](Cc1c[nH]cn1)C(=O)N[C@@H](CCCCN)C(N)=O)C(C)C [141 resynthesized] (H-KRSFSGFGSPLDRLSAGSVDHK-NH2)

EC50 (GPR1 [1]; [4]): 5250 nM
EC50 (GPR1 [2]): 9.77 nM
Molecule: CC[C@H](C)[C@H](NC(=O)[C@H](CCCNC(=N)N)NC(=O)[C@H](Cc1c[nH]cn1)NC(=O)[C@H](CO)NC(=O)[C@@H]1CCCN1C(=O)[C@H](CC(=O)O)NC(=O)[C@H](CC(C)C)NC(=O)[C@H](CC(N)=O)NC(=O)[C@H](CCC(N)=O)NC(=O)[C@H](CC(C)C)NC(=O)[C@H](CC(N)=O)NC(=O)[C@H](CCCCN)NC(=O)[C@@H](NC(=O)[C@@H](NC(=O)[C@H](CO)NC(=O)[C@H](CCSC)NC(=O)[C@H](CCCNC(=N)N)NC(=O)CNC(=O)[C@H](CO)NC(=O)[C@@H]1CCCN1C(=O)[C@H](C)NC(=O)[C@@H](N)CCCCN)[C@@H](C)CC)C(C)C)C(=O)N[C@@H](CO)C(=O)N[C@@H](CC(=O)O)C(=O)N[C@@H](CCCNC(=N)N)C(=O)N[C@@H](CC(=O)O)C(=O)N[C@@H](Cc1ccc(O)cc1)C(=O)N[C@@H](CCSC)C(=O)NCC(=O)N[C@@H](Cc1c[nH]c2ccccc12)C(=O)N[C@@H](CCSC)C(=O)N[C@@H](CC(=O)O)C(=O)N[C@@H](Cc1ccccc1)C(N)=O [194 original] (H-KAPSGRMSIVKNLQNLDPSHRISDRDYMGWMDF-NH2)

EC50 (GPR1 [1]; [4]): 6610 nM
EC50 (GPR1 [2]): 27.5 nM
Molecule: CC[C@H](C)[C@H](NC(=O)[C@H](CCCNC(=N)N)NC(=O)[C@H](Cc1c[nH]cn1)NC(=O)[C@H](CO)NC(=O)[C@@H]1CCCN1C(=O)[C@H](CC(=O)O)NC(=O)[C@H](CC(C)C)NC(=O)[C@H](CC(N)=O)NC(=O)[C@H](CCC(N)=O)NC(=O)[C@H](CC(C)C)NC(=O)[C@H](CC(N)=O)NC(=O)[C@H](CCCCN)NC(=O)[C@@H](NC(=O)[C@@H](NC(=O)[C@H](CO)NC(=O)[C@H](CCSC)NC(=O)[C@H](CCCNC(=N)N)NC(=O)CNC(=O)[C@H](CO)NC(=O)[C@@H]1CCCN1C(=O)[C@H](C)NC(=O)[C@@H](N)CCCCN)[C@@H](C)CC)C(C)C)C(=O)N[C@@H](CO)C(=O)N[C@@H](CC(=O)O)C(=O)N[C@@H](CCCNC(=N)N)C(=O)N[C@@H](CC(=O)O)C(=O)N[C@@H](Cc1ccc(O)cc1)C(=O)N[C@@H](CCSC)C(=O)NCC(=O)N[C@@H](Cc1c[nH]c2ccccc12)C(=O)N[C@@H](CCSC)C(=O)N[C@@H](CC(=O)O)C(=O)N[C@@H](Cc1ccccc1)C(N)=O [194 resynthesized] (H-KAPSGRMSIVKNLQNLDPSHRISDRDYMGWMDF-NH2)

EC50 (GPR1 [1]; [4]): 39.8 nM
EC50 (GPR1 [2]): 0.0132 nM
Molecule: CSCC[C@H](NC(=O)[C@@H](N)Cc1c[nH]c2ccccc12)C(=O)N[C@@H](CC(=O)O)C(=O)N[C@@H](Cc1ccccc1)C(N)=O [194.2 (Phoenix)]

EC50 (GPR1 [1]; HTLA cells transiently transfected, overnight stimulation, luciferase, mean ± SEM of 3-4 independent experiments in triplicate, read-out: pEC50, β-arrestin recruitment (Tango), GPR1 (converted)): 2510 nM
Molecule: CC(C)C[C@H](NC(=O)[C@H](CCCNC(=N)N)NC(=O)[C@H](CC(=O)O)NC(=O)[C@H](CC(C)C)NC(=O)[C@@H]1CCCN1C(=O)[C@H](CO)NC(=O)CNC(=O)[C@H](Cc1ccccc1)NC(=O)CNC(=O)[C@H](CO)NC(=O)[C@H](Cc1ccccc1)NC(=O)[C@H](CO)NC(=O)[C@H](CCCNC(=N)N)NC(=O)[C@@H](N)CCCCN)C(=O)N[C@@H](CO)C(=O)N[C@@H](C)C(=O)NCC(=O)N[C@@H](CO)C(=O)N[C@H](C(=O)N[C@@H](CC(=O)O)C(=O)N[C@@H](Cc1c[nH]cn1)C(=O)N[C@@H](CCCCN)C(N)=O)C(C)C [Peptide 141] (H-KRSFSGFGSPLDRLSAGSVDHK-NH2)

Active at: (activity in b-arrestin recruitment assays) [3]: GPR83
Molecule: AADHDVGSELPPEGVLGALLRV [Peptide 146]

Active at: (activity in b-arrestin recruitment assays) [3]: V1a V1b V2 OT
Molecule: CYFQNCPRG (disulfide) [Peptide 44]

Active at: (activity in b-arrestin recruitment assays) [3]: V1a V2 OT
Molecule: CYIQNCPLG (disulfide) [Peptide 45]

Active at: (activity in b-arrestin recruitment assays) [3]: MC4R
Molecule: DEGPYRMEHFRWGSPPKD [Peptide 126]

Molecule: FGGFTGARKSARKLANQ [Peptide 120]
Active at: (activity in b-arrestin recruitment assays) [3]: NOP

Active at: (activity in b-arrestin recruitment assays) [3]: NMUR1
Molecule: FRVDEEFQSPFASQSRGYFLFRPRN [Peptide 159]

Active at: (activity in b-arrestin recruitment assays) [3]: MLNR
Confirmation of known target in Tango [3]: Motilin receptor
Molecule: FVPIFTYGELQRMQEKERNKGQ [Peptide 145]

Active at: (activity in b-arrestin recruitment assays) [3]: NMUR1, NMUR2
Confirmation of known target in Tango [3]: NMUR1
Molecule: ILQRGSGTAAVDFTKKDHTATWGRPFFLFRPRN [Peptide 195]

b-arrestin recruitment assays (Tango) Emax (fold change) (GPR1 [1]; receptor GPR1, mean, SEM and n (2-3)): 14.4 fold change
Molecule: KRSFSGFGSPLDRLSAGSVDHK [141 original]

Active at: (activity in b-arrestin recruitment assays) [3]: MC4R
Molecule: SYSMEHFRWGKPV [Peptide 93]

Active at: (activity in b-arrestin recruitment assays) [3]: NPFF1
Molecule: VPNLPQRF [Peptide 29]

Active at: (activity in b-arrestin recruitment assays) [3]: NPBW1
Molecule: WYKPAAGHSSYSVGRAAGLLSGL [Peptide 152]

Active at: (activity in b-arrestin recruitment assays) [3]: Inactive
Molecule: YGGFL [Peptide 14]

Molecule: YGGFLRKYP [Peptide 46]
Active at: (activity in b-arrestin recruitment assays) [3]: Kappa

Molecule: YGGFMTSEKSQTPLVTLFKNAIIKNAYKKGE [Peptide 182]
Active at: (activity in b-arrestin recruitment assays) [3]: kappa, mu

Active at: (activity in b-arrestin recruitment assays) [3]: MC4R
Molecule: YVMGHFRWDRF [Peptide 74]

B1: prokineticin-2 (protein, UniProt Q9HC23 28-129, looked up)
Prokineticin-2: AVITGACDKDSQCGGGMCCAVSIWVKSIRICTPMGKLGDSCHPLTRKNNFGNGRQERRKRKRSKRKKEVPFFGRRMHHTCPCLPGLACLRTSFNRFICLAQK
pIC50_value (human GPCRs; [5]): 8.4
pIC50_value (human GPCRs; [6]): 8.2

B2: prokineticin-1 (protein, UniProt P58294 20-105, looked up)
Prokineticin-1: AVITGACERDVQCGAGTCCAISLWLRGLRMCTPLGREGEECHPGSHKVPFFRKRKHHTCPCLPNLLCSRFPDGRYRCSMDLKNINF
pIC50_value (human GPCRs; [5]): 7.6
pIC50_value (human GPCRs; [6]): 7.3

B3: CX3CL1 (protein, UniProt P78423 25-397, looked up)
Fractalkine: QHHGVTKCNITCSKMTSKIPVALLIHYQQNQASCGKRAIILETRQHRLFCADPKEQWVKDAMQHLDRQAAALTRNGGTFEKQIGEVKPRTTPAAGGMDESVVLEPEATGESSSLEPTPSSQEAQRALGTSPELPTGVTGSSGTRLPPTPKAQDGGPVGTELFRVPPVSTAATWQSSAPHQPGPSLWAEAKTSEAPSTQDPSTQASTASSPAPEENAPSEGQRVWGQGQSPRPENSLEREEMGPVPAHTDAFQDWGPGSMAHVSVVPVSSEGTPSREPVASGSWTPKAEEPIHATMDPQRLGVLITPVPDAQAATRRQAVGLLAFLGLLFCLGVAMFTYQSLQGCPRKMAGEMAEGLRYIPRSCGSNSYVLVPV
pIC50_value (human GPCRs; receptor CX3CR1 (cx3c1_human, P49238)): 8.9

B4: XCL1 (protein, UniProt P47992 22-114, looked up)
Lymphotactin: VGSEVSDKRTCVSLTTQRLPVSRIKTYTITEGSLRAVIFITKRGLKVCADPQATWVRDVVRSMDRKSNTRNNMIQTKPTGTQQSTNTAVTLTG
pEC50_value (human GPCRs): 7.3

B5: XCL2 (protein, UniProt Q9UBD3 22-114, looked up)
Cytokine SCM-1 beta: B4 Lymphotactin with D7H, K8R
pEC50_value (human GPCRs): 7.3
